Measured values: US20050175762A1, “Methods and compositions to inhibit lipid oxidation” (priority 2003, published 2005)

Legend:
[1] = system: trout hemoglobin-mediated lipid oxidation in washed cod muscle; assay: Hemoglobin-mediated lipid oxidation in washed cod muscle (TBARS); conditions: for Inhibition in TBARS formation: washed cod muscle; for Effect on lipid oxidation in washed cod muscle: hemoglobin-mediated, 2° C. storage, FIG. 22 and 23
Method: Furthermore, cod muscle and trout hemoglobin were prepared according to the method described by Richards et al., Role of deoxyhemoglobin in lipid oxidation of washed cod muscle mediated by trout, poultry and beef hemoglobins. Meat Sci. 2002, 62, 157-163. The hemoglobin-mediated lipid oxidation system consisted of washed cod muscle, cranberry crude extract/fractions, streptomycin sulfate, and trout hemoglobin. The final concentration of hemoglobin and cranberry extract/fractions was 12 and 37/74 μmol per kg washed cod muscle, respectively. A control sample containing no cranberry crude extract/fractions was also prepared. The final moisture content of washed cod muscle was adjusted to 90%. pH was adjusted to between 6.10 and 6.30 by 1 M NaOH or HCl. All samples were stored at 2° C. for 7 to 9 days.
The progress of lipid oxidation in washed cod muscle was followed by periodically removing samples and quantifying TBARS formed by a modified method of Buege and Aust Microsomal lipid peroxidation. Method. Enzymol. 1978, LII, 302-310 as described by Richards et al., Role of deoxyhemoglobin in lipid oxidation of washed cod muscle mediated by trout, poultry and beef hemoglobins. Meat Sci. 2002, 62, 157-163. Lag time (LT) is defined as extension in stability compared to control sample which was stable for around 1 day. All trials in this study were conducted in duplicate or triplicate and in each trial triplicate determinations were performed

[2] = DPPH radical scavenging by spectrophotometry; format: biochemical; conditions: 30 min at 22 to 24° C., 515 nm, concentrations as quercetin equivalent, read-out: SC50 (concentration required to obtain 50% of a maximum scavenging capacity)
Method: After a 30 min incubation at 22 to 24° C., the resultant absorbance was recorded at 515 nm by a double-beam spectrophotometer model UV-2401 (Shimadzu Scientific Instruments Inc., Columbia, Md.). Ascorbate, propyl gallate, and quercetin were used as reference standard. The scavenging capacity%=[1-((Abs of cranberry crude extract/fractions-Abs of blank)/Abs control)]*100. […] Plant Sci. 2002, 163, 1161-1168). The cranberry crude extract/fractions were evaluated and compared with ascorbic acid, propyl gallate and quercetin for the free radical scavenging activity toward stable DPPH radicals. […] Specifically, in referring to FIG. 21, the final concentration of DPPH radical was […].

[3] = system: salmon oil-in water emulsion; assay: Lipid oxidation in salmon oil-in water emulsion; conditions: 400 ppm, 10% salmon oil, 0.5% tween 20, pH 3.0, 27° C.
Method: Similarly, applicants have tested cranberry fractions in various emulsion systems (FIGS. 7-0). More specifically, FIG. 7, illustrates the effect of quercetin on lipid oxidation in salmon oil-in water emulsion. […] The emulsion consisted of 10% (w/w) salmon oil, 0.5% (w/w) tween 20 and 10 mM pH 3.0 acetate-imidazole buffer. Quercetin was added into the emulsion samples at the level of 400 ppm. The emulsion samples were oxidized in a shaker oven at 27° C. Likewise, FIG. 8, also illustrates the effect of cranberry fractions on lipid oxidation in salmon oil-in water emulsion. However, cranberry fractions and quercetin were added into the emulsion samples at the level of 400 ppm. Also, FIGS. 9 and 10 illustrate the effect of cranberry fractions on lipid oxidation in salmon oil-in water emulsion. However, 10% salmon oil was used in both fraction 4 and control treated samples, whereas 9.2% oil was used in the fraction 2 treated sample.

[4] = system: mechanically separated turkey (MST); assay: Lipid oxidation (TBARS) in mechanically separated turkey during iced storage

SMILES | Inhibition in TBARS formation ([1]; 37 μmol quercetin per kg) | Inhibition in TBARS formation ([1]; 74 mmole quercetin equivalent) | Effect on lipid oxidation in washed cod muscle [1] | EC50 [2] | Effect on lipid oxidation in emulsion systems [3] | Inhibition on lipid oxidation of MST ([4]; 210 umol quercetin/kg MST, 2° C. storage) | Inhibition of lipid oxidation in MST ([4]; quercetin at 50 umol/kg, precipitate added on a quercetin equivalent basis (FIG. 5))
O=c1c(O)c(-c2ccc(O)c(O)c2)oc2cc(O)cc(O)c12 [quercetin] | 83% | Up to 94% | as effective as 37 mmole propyl gallate | 4.89 µM | In 2 of 3 trials, quercetin was inhibitory | Effective inhibition | highly effective
O=C1O[C@H]([C@@H](O)CO)C(O)=C1O [ascorbic acid] |  |  |  | 12.2 µM |  |  | 
CCCOC(=O)c1cc(O)c(O)c(O)c1 [propyl gallate] |  |  | stable throughout the entire storage period | 5.07 µM |  |  | 
